From patent publication US7772425B2, “Vitamin D receptor modulators” (Eli Lilly and Company, priority 2002, dated 2010)
pEC50, pIC50: −log10 of the molar value. Where “and” joins values, the source holds several entries; their conditions need not be identical. Identical values can stand only once. Like-named read-outs stand apart in the source and are kept apart here.

Legend:
[1] = system: rat osteocalcin promoter; assay: OCN (osteocalcin) promoter assay in RG-15 (ROS 17/2.8) cells; assay type: cell-based; conditions: 48 hr treatment, luciferase
Procedure: 3. The OCN (Osteocalcin) Promoter Assay
The OCN Promoter Assay is an indicator and marker for osteoporosis. […] Preferred assay results are less than 50 nM.
(3) Materials and Method for The OCN Promoter Assay:
The activation of osteocalcin by VDR ligands was evaluated in a rat osteoblast-like cell line RG-15 (ROS 17/2.8) stably expressing rat osteocalcin promoter fused with luciferase reporter gene. […] Confluent RG-15 cells maintained in DMEM/F-12 medium (3:1) containing 5% FBS, 300 μg/ml G418 and at 37° C. under 5% CO2/95% air atmosphere were trypsinized (0.25% trypsin) and plated into white opaque 96-well cell culture plates (25000 cells/well). After 24 hr, cells (in DMEM/F-12 medium+2% FBS) were treated with various concentrations of compounds, dissolved in DMSO. The final DMSO concentration remained at 0.01% (v/v). After 48 hr treatment, the medium was removed, cells were lysed with 50 μl of lysis buffer (From Luciferase reporter assay system, Roche Diagnostics, Indianapolis, Ind.) and assayed for luciferase activity using the Luciferase Reporter Gene Assay kit from Boehringer Mannheim as per manufacturer's specifications.

[2] = system: KERtr cells (Human skin keratinocyte); assay: Keratinocyte proliferation assay; assay type: cell-based; conditions: BrdU incorporation, read-out: Kera. Prolif. IC50
Procedure: 5. The Keratinocyte Proliferation Assay
This Assay is indicative for the treatment of psoriasis.
(5) The Keratinocyte Proliferation Assay:
KERtr cells (Human skin keratinocyte transformed with a retrovirus vector, obtained from ATCC) were plated in 96-well flat-bottomed plates (3000 cells/well) in 100 μl keratinocyte serum free medium supplemented with bovine pituitary extract in the absence of EGF (Life Technologies, Rockville, Md.) and incubated at 37° C. for two days. The cells were treated with various concentrations of VDR ligands (ten-fold serial dilution from 10,000 nM to 0.1 nM in triplicate), dissolved in 100 μl keratinocyte serum free medium supplemented with bovine pituitary extract in the absence of EGF and incubated at 37° C. for 72 hr. BrdU (5-bromo-2′-deoxyuridine) incorporation was analyzed as a measure of DNA replication (Cell proliferation ELISA kit, Roche Diagnostics, Indianapolis, Ind.) and absorbance was measured at 405 nm. Potency values (IC50) values were determined as the concentration (nM) of compound that elicited a half-maximal response.

[3] = system: female DBF mice; assay: Mouse hypercalcemia assay; assay type: in vivo; conditions: orally via gavage for 6 days; serum ionized calcium 6 hours after last dosing
From the text: 4. The Mouse Hypercalcemia Assay
(4) Materials and Method for The Mouse Hypercalcemia Assay: […]

[4] = system: IL-10; assay: human IL-10 induction assay in PBMCs; assay type: cell-based; conditions: TPA/PHA treated human PBMCs, IL-10 immunoassay of supernatant
From the text: The evaluation of the novel compounds of the invention for psoriasis is done using the Keratinocyte Proliferation Assay in combination with other assays that measure inhibition of IL-2 production and stimulation of IL-10 production in peripheral blood mononuclear cells (PBMCs).
6. The IL-10 Induction Assay
This is an in vitro efficacy assay for psoriasis, abscess and adhesion. Psoriasis involves both keratinocytes and immune cells. IL-10 is a unique cytokine because it is anti-inflammatory and immunosuppressive. This assay tells us whether a VDRM is able to function as an agonist in PBMCs (primary blood mononuclear cells) or not. A lower EC50 value is desirable in this assay since a compound with a lower EC50 value will be a better agonist in PBMCs.
(6) Materials and Method for human IL-10 Induction Assay:
Isolation of peripheral blood mononuclear cells (PBMCs):
• A. Collect 50 ml of human blood and dilute with media, RPMI-1640. • B. Prepare sterile tubes with ficol. • C. Add diluted blood to tubes. • D. Centrifuge. • E. Discard the top layer and collect the cells from middle layer. • F. Divide all cells into four tubes and add media. • G. Centrifuge. • H. Aspirate off media and resuspend. • I. Collect all cells • J. Centrifuge. at 1200 rpm for 10 minutes. • K. Resuspend in RPMI-1640 with 2% FBS and count cells Stimulation of PBMC: • L. Prepare TPA in DMSO. • M. Dissolve PHA in water. • N. Plate TPA/PHA treated PBMCs in well plates. • O. Incubate. Treatment: • P. Prepare all compound dilutions in plain RPMI-1640 media. • Q. Add diluted compound. • R. Incubate. Sample Collection and assay: • S. Remove all the cells by centrifugation and assay the supernatant for IL-10 by immunoassay. • 1) T. Perform IL-10 assay using anti-human IL-10 antibody coated beads, as described by the manufacturer (Linco Research Inc., St. Charles, Mo.).

[5] = Homo sapiens, Keratinocyte, 72 h

Row | Structure (SMILES) | pEC50 [1] | pIC50 [2, 5] | Mouse Hypercal [3] [µg/kg/day] | pIC50 ([4]; Homo sapiens, PBMC) | pIC50 ([2]; 72 hr) | pIC50 [4]
1 | CCC(CC)(c1ccc(OC(C)C(O)C(C)(C)C)c(C)c1)c1ccc(C(=O)O)c(C)c1 (single isomer, unassigned) [Ex. 11, 3′-[4-(2-hydroxy-1,3,3-trimethylbutoxy)-3-methylphenyl]-3′-[4-carboxyl-3-methylphenyl]pentane] | 8.15 | 6.51 | 3000 | 6.32 | – | –
2 | CCC(CC)(c1ccc(OCC(O)C(C)(C)C)c(C)c1)c1ccc(C(=O)Nc2nnn[nH]2)c(C)c1 (single isomer, unassigned) [Ex. 12a, 3′-[4-(2-hydroxy-3,3-dimethylbutoxy)-3-methylphenyl]-3′-[4-(tetrazol-5-ylaminocarbonyl)-3-methylphenyl]pentane] | 9.00 | 8.40 | 300 | 7.28 | – | –
3 | CCC(CC)(c1ccc(OCC(O)C(C)(C)C)c(C)c1)c1ccc(C(=O)N(C)CC(=O)O)c(C)c1 (single isomer, unassigned) [Ex. 19, [(4-{1-Ethyl-1-[4-(2-hydroxy-3,3-dimethyl-butoxy)-3-methyl-phenyl]-propyl}-2-methyl-benzoyl)-methyl-amino]-acetic acid] | 7.92 and 7.80 | – | 2000 | – | 7.09 | 6.85
4 | CCC(CC)(c1ccc(OCC(O)C(C)(C)C)c(C)c1)c1ccc(C(=O)NCC(=O)O)c(C)c1 (single isomer, unassigned) [Ex. 25A, (4-{1-ethyl-1-[4-(2-hydroxy-3,3-dimethylbutoxy)-3-methylphenyl]-propyl}-2-methylbenzoylamino)acetic acid] | 9.40 | – | <300 | – | 5.96 | 7.40
5 | CCC(CC)(c1ccc(OCC(O)C(C)(C)C)c(C)c1)c1ccc(C(=O)NCC(=O)O)c(C)c1 (single isomer, unassigned) [Ex. 25B, (4-{1-ethyl-1-[4-(2-hydroxy-3,3-dimethylbutoxy)-3-methylphenyl]-propyl}-2-methylbenzoylamino)acetic acid] | 8.70 and 8.52 | – | 1000 | – | 7.59 | 6.80
6 | CCC(CC)(c1ccc(OCC(O)C(C)(C)C)c(C)c1)c1ccc(C(=O)Nc2nnn[nH]2)c(C)c1 (single isomer, unassigned) [Ex. 26, 3′-[4-(2-hydroxy-3,3-dimethylbutoxy)-3-methylphenyl]-3′-[4-(tetrazol-5-ylaminocarbonyl)-3-methylphenyl]pentane] | 9.00 | – | 300 | – | 8.40 | 7.28
7 | CCC(CC)(c1ccc(OC(C)C(O)C(C)(C)C)c(C)c1)c1ccc(C(=O)NCC(=O)O)c(C)c1 (single isomer, unassigned) [Ex. 31, 3′-[4-(2-hydroxy-1,3,3-trimethylbutoxy)-3-methylphenyl]-3′-[4-(carboxymethylaminocarbonyl)-3-methylphenyl]pentane] | 9.00 | – | 3000 | – | 7.68 | 6.53
8 | CCC(CC)(c1ccc(COCC(=O)O)c(C)c1)c1ccc(OCC(O)C(C)(C)C)c(C)c1 (single isomer, unassigned) [Ex. 33, (4-{1-ethyl-1-[4-(2-hydroxy-3,3-dimethyl-butoxy)-3-methyl-phenyl]-propyl}-2-methyl-benzyloxy)-acetic acid] | – | 8.22 | <300 | 7.72 | – | –
9 | CCC(CC)(c1ccc(C(=O)O)cc1)c1ccc(OCC(=O)C(C)(C)C)c(C)c1 [Ex. 21, 4-{1-[4-(3,3-Dimethyl-2-oxo-butoxy)-3-methyl-phenyl]-1-ethyl-propyl}-benzoic acid] | – | 6.65 | 6000 | 5.98 | – | –
10 | CCC(CC)(c1ccc(OCC(O)C(C)(C)C)c(C)c1)c1ccc(C(=O)N[C@H](C)C(=O)O)c(C)c1 (stereo partly drawn) [Ex. 34, D-2-(4-{1-ethyl-1-[4-(2-hydroxy-3,3-dimethyl-butoxy)-3-methyl-phenyl]-propyl}-2-methyl-benzoylamino)-propionic acid] | – | 7.60 | <300 | 7.35 | – | –
